| glass transition temperature | Structure (SMILES) |
| --- | --- |
| 250.00 °C | *C(=O)Nc1cc(C(c2cc(C)c(C)c(NC(=O)c3ccc4c(c3)C(=O)N(c3cccc5c(N6C(=O)c7ccc(*)cc7C6=O)cccc35)C4=O)c2)(C(F)(F)F)C(F)(F)F)cc(C)c1C (repeat unit) |
| 278.00 °C | *C(=O)Nc1ccc(/N=N/c2ccc([N+](=O)[O-])cc2)c(NC(=O)c2ccc3c(c2)C(=O)N(c2c(C)cc(-c4cc(C)c(N5C(=O)c6ccc(*)cc6C5=O)c(C)c4)cc2C)C3=O)c1 (repeat unit) |
| 318.00 °C | *C(=O)Nc1ccc(C(c2ccc(NC(=O)c3ccc4c(c3)C(=O)N(c3c(C)cc(-c5cc(C)c(N6C(=O)c7ccc(*)cc7C6=O)c(C)c5)cc3C)C4=O)cc2)(C(F)(F)F)C(F)(F)F)cc1 (repeat unit) |
| 250.00 °C | *C(=O)Nc1ccc(C(c2ccc(NC(=O)c3ccc4c(c3)C(=O)N(c3c(C)cc(C)c(N5C(=O)c6ccc(*)cc6C5=O)c3C)C4=O)cc2)(C(F)(F)F)C(F)(F)F)cc1 (repeat unit) |
| 327.00 °C | *C(=O)Oc1c(C)cc(C(c2cc(C)c(OC(=O)c3ccc4c(c3)C(=O)N(c3c(C)cc(-c5cc(C)c(N6C(=O)c7ccc(*)cc7C6=O)c(C)c5)cc3C)C4=O)c(C)c2)(C(F)(F)F)C(F)(F)F)cc1C (repeat unit) |
| 265.40 °C | *C(=O)c1ccc2c(c1)C(=O)N(c1cc(Oc3c(C)cc(-c4cc(C)c(Oc5cc(N6C(=O)c7ccc(*)cc7C6=O)cc(C(F)(F)F)c5)c(C)c4)cc3C)cc(C(F)(F)F)c1)C2=O (repeat unit) |
| 317.00 °C | *C(=O)c1ccc2c(c1)C(=O)N(c1ccc(Cc3ccc(Cc4cccc(N5C(=O)c6ccc(*)cc6C5=O)c4)cc3)cc1)C2=O (repeat unit) |
| 300.00 °C | *C(=O)c1ccc2c(c1)C(=O)N(c1cccc(C(=O)c3c(C)cc(C)c(N4C(=O)c5ccc(*)cc5C4=O)c3C)c1)C2=O (repeat unit) |
| 100.00 °C | *CC(O)COc1ccc(C(C)(C)c2ccc(OCC(O)COc3c(C)cc(C(C)(C)c4cc(C)c(O*)c(C)c4)cc3C)cc2)cc1 (repeat unit) |
| 128.00 °C | *Oc1c(Br)cc(C(C)(C)c2cc(Br)c(OC(=O)c3ccc(OCCCCCCCCCCOc4ccc(C(*)=O)cc4)cc3)c(Br)c2)cc1Br (repeat unit) |
| 57.00 °C | *Oc1c(C)cc(-c2cc(C)c(OC(=O)CCCCCCCCC(*)=O)c(C)c2)cc1C (repeat unit) |
| 45.00 °C | *Oc1c(C)cc(C(C)(C)c2cc(C)c(OC(=O)CCCCCCCCC(*)=O)c(C)c2)cc1C (repeat unit) |
| 295.00 °C | *Oc1cc(C(C)(C)C)c(Oc2ccc(C(=O)Nc3c(C)cc(C(C)(C)c4cc(C)c(NC(=O)c5ccc(*)cc5)c(C)c4)cc3C)cc2)cc1C(C)(C)C (repeat unit) |
| 290.00 °C | *c1c(C)cc(-c2cc(C)c(N3C(=O)c4ccc(S(=O)(=O)c5ccc6c(c5)C(=O)N(*)C6=O)cc4C3=O)c(C)c2)cc1C (repeat unit) |
| 256.90 °C | *c1cc(C(=O)NCCCCCC)cc(N2C(=O)c3ccc(-c4ccc5c(c4)C(=O)N(*)C5=O)cc3C2=O)c1 (repeat unit) |
| 245.10 °C | *c1cc(C(=O)NCCCCCCCCCC)cc(N2C(=O)c3ccc(-c4ccc5c(c4)C(=O)N(*)C5=O)cc3C2=O)c1 (repeat unit) |
| 230.00 °C | *c1cc(C(=O)Oc2ccc(-c3ccc(O[Si](C)(C)C(C)(C)C)cc3)cc2)cc(N2C(=O)c3ccc(-c4ccc5c(c4)C(=O)N(*)C5=O)cc3C2=O)c1 (repeat unit) |
| 280.00 °C | *c1cc(C)c(-c2c(C)cc(N3C(=O)c4ccc(-c5ccc6c(c5)C(=O)N(*)C6=O)cc4C3=O)cc2C)c(C)c1 (repeat unit) |
| 278.00 °C | *c1cc(C)c(Cc2cc(C)c(N3C(=O)c4ccc(Oc5ccc(Oc6ccc7c(c6)C(=O)N(*)C7=O)cc5)cc4C3=O)cc2C)cc1C (repeat unit) |
| 320.00 °C | *c1ccc(Oc2ccc(S(=O)(=O)c3ccc(C)cc3)cc2)c(-n2c(=O)c3cc4c(=O)n(*)c(=O)c4cc3c2=O)c1 (repeat unit) |
| 361.00 °C | *c1ccc2c(c1)C(=O)N(c1c(C)cc(C3(c4cc(C)c(N5C(=O)c6ccc(C(*)(C(F)(F)F)C(F)(F)F)cc6C5=O)c(C)c4)c4ccccc4-c4ccccc43)cc1C)C2=O (repeat unit) |

More lines, now with the values behind:

| Structure (SMILES) | glass transition temperature |
| --- | --- |
| *C(=O)Nc1ccc(-c2ccc(NC(=O)c3ccc4c(c3)C(=O)N(c3c(C)cc(C)c(N5C(=O)c6ccc(*)cc6C5=O)c3C)C4=O)cc2C(F)(F)F)c(C(F)(F)F)c1 (repeat unit) | 267.00 °C |
| *C(=O)Oc1ccc(C(c2ccc(OC(=O)c3ccc4c(c3)C(=O)N(c3c(C)cc(-c5cc(C)c(N6C(=O)c7ccc(*)cc7C6=O)c(C)c5)cc3C)C4=O)cc2)(C(F)(F)F)C(F)(F)F)cc1 (repeat unit) | 335.00 °C |
| *C(=O)c1ccc2c(c1)C(=O)N(c1ccc(/C=C/c3ccc(N4C(=O)c5ccc(*)cc5C4=O)cc3S(=O)(=O)[O][Na])c(S(=O)(=O)[O][Na])c1)C2=O (repeat unit) | 229.00 °C |
| *CC(O)COc1c(C)cc(C(C)(C)c2cc(C)c(OCC(O)COc3c(C)cc(S(=O)(=O)c4cc(C)c(O*)c(C)c4)cc3C)c(C)c2)cc1C (repeat unit) | 145.00 °C |
| *CC(O)COc1c(C)cc(C(C)(C)c2cc(C)c(OCC(O)COc3ccc(S(=O)(=O)c4ccc(O*)cc4)cc3)c(C)c2)cc1C (repeat unit) | 145.00 °C |
| *CC(O)COc1ccc(S(=O)(=O)c2ccc(OCC(O)COc3c(C)cc(S(=O)(=O)c4cc(C)c(O*)c(C)c4)cc3C)cc2)cc1 (repeat unit) | 145.00 °C |
| *CC/C(=C(/*)c1ccccc1)c1ccccc1 (repeat unit) | 120.50 °C |
| *OS(=O)(=O)c1cc(C)c(*)c(C)c1 (repeat unit) | 153.00 °C |
| *O[Si](C)(C)CC[Si](C)(C)Oc1c(C)cc(-c2cc(C)c(*)c(C)c2)cc1C (repeat unit) | 55.00 °C |
| *O[Si](C)(C)O[Si](C)(C)O[Si](C)(C)Oc1c(C)cc(-c2cc(C)c(*)c(C)c2)cc1C (repeat unit) | 14.00 °C |
| *Oc1c(C)cc(-c2cc(C)c(Oc3ccc(C(=O)c4ccc(*)cc4)cc3)c(C)c2)cc1C (repeat unit) | 246.63 °C |
| *Oc1c(C)cc(C(C)(C)c2cc(C)c(OC(=O)c3cccc(C(*)=O)c3)c(C)c2)cc1C (repeat unit) | 187.00 °C |
| *c1c(C)cc(-c2cc(C)c(N3C(=O)c4ccc(-c5ccc6c(c5)C(=O)N(*)C6=O)cc4C3=O)c(C)c2)cc1C (repeat unit) | 285.00 °C |
| *c1c(C)cc(C(c2cccnc2)c2cc(C)c(N3C(=O)CC(Nc4ccc(NC5CC(=O)N(*)C5=O)cc4)C3=O)c(C)c2)cc1C (repeat unit) | 231.00 °C |
| *c1c(C)cc(C(c2cccnc2)c2cc(C)c(N3C(=O)CC(Nc4cccc(NC5CC(=O)N(*)C5=O)c4)C3=O)c(C)c2)cc1C (repeat unit) | 224.00 °C |
| *c1cc(-c2sc(-c3cc(CCCC)c(*)s3)cc2CCCC)c2cccccc1-2 (repeat unit) | 124.00 °C |

| Structure (SMILES) | glass transition temperature |
| --- | --- |
| *c1cc(Br)c(-c2c(Br)cc(N3C(=O)c4ccc(-c5ccc6c(c5)C(=O)N(*)C6=O)cc4C3=O)cc2C(=O)OCCCCCCCCCCCCCCCC)c(C(=O)OCCCCCCCCCCCCCCCC)c1 (repeat unit) | 92.00 °C |
| *c1cc(Br)c(-c2c(Br)cc(N3C(=O)c4ccc(-c5ccc6c(c5)C(=O)N(*)C6=O)cc4C3=O)cc2C(=O)OCCCCCCCCCCCCCCCCCC)c(C(=O)OCCCCCCCCCCCCCCCCCC)c1 (repeat unit) | 83.50 °C |
| *c1cc(C(=O)NCCCCCCCC)cc(N2C(=O)c3ccc(-c4ccc5c(c4)C(=O)N(*)C5=O)cc3C2=O)c1 (repeat unit) | 245.50 °C |
| *c1cc(C(=O)NCCCCCCCCCCCCCC)cc(N2C(=O)c3ccc(-c4ccc5c(c4)C(=O)N(*)C5=O)cc3C2=O)c1 (repeat unit) | 247.60 °C |
| *c1cc(C(=O)O)cc(N2C(=O)CC(C3CC4C(=O)N(*)C(=O)C4c4ccccc43)C2=O)c1 (repeat unit) | 360.00 °C |
| *c1cc(C(=O)OCCCCC)cc(N2C(=O)CC(C3Cc4ccccc4C4C(=O)N(*)C(=O)C43)C2=O)c1 (repeat unit) | 219.00 °C |
| *c1cc(C(=O)Oc2cccc3cccnc23)c(*)s1 (repeat unit) | 154.00 °C |
| *c1cc(C(C(=O)OC)C(=O)OC)c(*)s1 (repeat unit) | -20.10 °C |
| *c1cc(C(C)(C)c2ccc(O)cc2)cc(*)c1O (repeat unit) | 135.00 °C |
| *c1ccc(C(=O)Oc2c(C)cc(C(c3cccnc3)c3cc(C)c(OC(=O)c4ccc(N5C(=O)CC(Nc6ccc(Cc7ccc(NC8CC(=O)N(*)C8=O)cc7)cc6)C5=O)cc4)c(C)c3)cc2C)cc1 (repeat unit) | 186.00 °C |
| *c1ccc(Oc2ccc(C(C)(C)c3ccccc3)cc2)c(-n2c(=O)c3cc4c(=O)n(*)c(=O)c4cc3c2=O)c1 (repeat unit) | 340.00 °C |
| *c1ccc2c(c1)C(=O)N(c1c(C)cc(-c3cc(C)c(N4C(=O)c5ccc(C(*)(C(F)(F)F)C(F)(F)F)cc5C4=O)c4ccccc34)c3ccccc13)C2=O (repeat unit) | 403.00 °C |
| *c1ccc2c(c1)C(=O)N(c1cc(Oc3c(C)cc(-c4cc(C)c(Oc5cc(N6C(=O)c7ccc(C(*)(C(F)(F)F)C(F)(F)F)cc7C6=O)cc(C(F)(F)F)c5)c(C)c4)cc3C)cc(C(F)(F)F)c1)C2=O (repeat unit) | 264.80 °C |
| *c1cccc(P(=O)(c2ccccc2)c2cccc(N3C(=O)c4ccc(NC(=O)OCCOc5c(Br)cc(C(C)(C)c6cc(Br)c(OCCOC(=O)Nc7ccc8c(c7)C(=O)N(*)C8=O)c(Br)c6)cc5Br)cc4C3=O)c2)c1 (repeat unit) | 201.00 °C |
| *c1cccc(P(C)(=O)c2cccc(N3C(=O)c4ccc(NC(=O)OCCOc5c(Br)cc(C(C)(C)c6cc(Br)c(OCCOC(=O)Nc7ccc8c(c7)C(=O)N(*)C8=O)c(Br)c6)cc5Br)cc4C3=O)c2)c1 (repeat unit) | 191.00 °C |

— the PolyMetriX glass transition set
